Key:
[1] = tested on: Mus musculus; experiment: Anticonvulsant activity in Swiss albino mouse assessed as protection against maximal electroshock-induced seizures at 30 mg/kg, ip administered 3 hrs prior to 50 mA current induction relative to control; format: functional
[2] = tested on: Mus musculus; experiment: Anticonvulsant activity in Swiss albino mouse assessed as protection against subcutaneous PTZ-induced seizures at 30 mg/kg, ip administered 0.5 hrs prior to PTZ-induction relative to control; format: functional
[3] = molecular target: Carbonic anhydrase 7 (Homo sapiens, UniProt P43166); experiment: Inhibition of human recombinant carbonic anhydrase 7 assessed as CO2 hydration preincubated for 15 mins prior to testing measured for 10 to 100 secs by phenol red dye-based stopped-flow assay
Chain of Carbonic anhydrase 7 (P43166 whole entry): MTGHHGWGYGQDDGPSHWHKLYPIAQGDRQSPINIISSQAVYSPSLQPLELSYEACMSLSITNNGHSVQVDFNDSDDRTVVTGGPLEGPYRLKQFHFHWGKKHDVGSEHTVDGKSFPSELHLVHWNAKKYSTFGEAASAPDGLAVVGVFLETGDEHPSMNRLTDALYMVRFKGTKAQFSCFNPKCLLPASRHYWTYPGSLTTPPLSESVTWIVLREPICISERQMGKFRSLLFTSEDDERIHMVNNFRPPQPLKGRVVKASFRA

[4] = tested on: Mus musculus; experiment: Anticonvulsant activity in Swiss albino mouse assessed as protection against maximal electroshock-induced seizures at 100 mg/kg, ip administered 0.5 hrs prior to 50 mA current induction relative to control
[5] = tested on: Mus musculus; experiment: Anticonvulsant activity in Swiss albino mouse assessed as protection against maximal electroshock-induced seizures at 30 mg/kg, ip administered 0.5 hrs prior to 50 mA current induction relative to control; format: functional
[6] = tested on: Mus musculus; experiment: Anticonvulsant activity in Swiss albino mouse assessed as protection against maximal electroshock-induced seizures at 100 mg/kg, ip administered 0.5 hrs prior to 50 mA current induction relative to control; format: functional
[7] = tested on: Mus musculus; experiment: Anticonvulsant activity in Swiss albino mouse assessed as protection against subcutaneous PTZ-induced seizures at 100 mg/kg, ip administered 0.5 hrs prior to PTZ-induction relative to control; format: functional
[8] = molecular target: Carbonic anhydrase 9 (Homo sapiens, UniProt Q16790); experiment: Inhibition of human recombinant carbonic anhydrase 9 assessed as CO2 hydration preincubated for 15 mins prior to testing measured for 10 to 100 secs by phenol red dye-based stopped-flow assay
[9] = molecular target: Carbonic anhydrase 2 (Homo sapiens, UniProt P00918); experiment: Inhibition of human recombinant carbonic anhydrase 2 assessed as CO2 hydration preincubated for 15 mins prior to testing measured for 10 to 100 secs by phenol red dye-based stopped-flow assay
[10] = tested on: Mus musculus; experiment: Anticonvulsant activity in Swiss albino mouse assessed as protection against subcutaneous PTZ-induced seizures at 100 mg/kg, ip administered 3 hrs prior to PTZ-induction relative to control; format: functional
[11] = tested on: Mus musculus; experiment: Anticonvulsant activity in Swiss albino mouse assessed as protection against maximal electroshock-induced seizures at 100 mg/kg, ip administered 3 hrs prior to 50 mA current induction relative to control; format: functional
[12] = tested on: Mus musculus; experiment: Anticonvulsant activity in Swiss albino mouse assessed as protection against maximal electroshock-induced seizures at 30 mg/kg, ip administered 3 hrs prior to 50 mA current induction relative to control
[13] = tested on: Mus musculus; experiment: Anticonvulsant activity in Swiss albino mouse assessed as protection against maximal electroshock-induced seizures at 30 mg/kg, ip administered 0.5 hrs prior to 50 mA current induction relative to control
[14] = tested on: Mus musculus; experiment: Anticonvulsant activity in Swiss albino mouse assessed as protection against maximal electroshock-induced seizures at 100 mg/kg, ip administered 3 hrs prior to 50 mA current induction relative to control
[15] = molecular target: Carbonic anhydrase 1 (Homo sapiens, UniProt P00915); experiment: Inhibition of human recombinant carbonic anhydrase 1 assessed as CO2 hydration preincubated for 15 mins prior to testing measured for 10 to 100 secs by phenol red dye-based stopped-flow assay
Chain of Carbonic anhydrase 1 (P00915 whole entry): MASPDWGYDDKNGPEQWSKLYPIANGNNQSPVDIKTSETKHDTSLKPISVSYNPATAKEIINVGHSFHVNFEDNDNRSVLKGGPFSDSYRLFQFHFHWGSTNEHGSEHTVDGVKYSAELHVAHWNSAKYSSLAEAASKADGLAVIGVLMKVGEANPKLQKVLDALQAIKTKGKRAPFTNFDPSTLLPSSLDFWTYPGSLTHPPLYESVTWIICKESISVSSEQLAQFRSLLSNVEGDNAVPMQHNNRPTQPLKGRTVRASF

[16] = tested on: Mus musculus; experiment: Anticonvulsant activity in Swiss albino mouse assessed as protection against subcutaneous PTZ-induced seizures at 30 mg/kg, ip administered 3 hrs prior to PTZ-induction relative to control; format: functional

| SMILES | Ki [3] | Ki [8] | Ki [9] | Ki [15] | also measured |
| --- | --- | --- | --- | --- | --- |
| NS(=O)(=O)c1ccc(N/N=C/c2ccc(N3CCN(C(=O)OCc4ccccc4)CC3)cc2)cc1 | 11.4 nM | 1630 nM | 93.9 nM | 920 nM | Activity [1]: 33%; Activity [2]: 50%; Activity [4]: 50%; Activity [5]: 50%; Activity [6]: 50%; Activity [7]: 67%; Activity [10]: 33%; Activity [11]: 67%; Activity [12]: 33%; Activity [13]: 50%; Activity [14]: 67%; Activity [16]: 67% |
| Cc1ccc(N2CCN(c3ccc(/C=N/Nc4ccc(S(N)(=O)=O)cc4)cc3)CC2)c(C)c1 | 72 nM | 1740 nM | 553 nM | 4110 nM |  |
| NS(=O)(=O)c1ccc(C(=O)N/N=C/c2ccc(N3CCN(Cc4ccc5c(c4)OCO5)CC3)cc2)cc1 | 751 nM | 95.2 nM | 962 nM | 8370 nM |  |
| NS(=O)(=O)c1ccc(N/N=C/c2ccc(N3CCN(c4ccccc4)CC3)cc2)cc1 | 98.4 nM | 1240 nM | 888 nM | 7860 nM |  |
| NS(=O)(=O)c1ccc(C(=O)N/N=C/c2ccc(N3CCN(c4ccccc4)CC3)cc2)cc1 | 181 nM | 276 nM | 4130 nM | > 10000 nM |  |
| NS(=O)(=O)c1ccc(C(=O)N/N=C/c2ccc(N3CCN(c4ncccn4)CC3)cc2)cc1 | 132 nM | 1840 nM | 963 nM | 2060 nM |  |
| NS(=O)(=O)c1ccc(C(=O)N/N=C/c2ccc(N3CCN(c4ccc(F)cc4)CC3)cc2)cc1 | 147 nM | 1960 nM | 822 nM | 5800 nM |  |
| NS(=O)(=O)c1ccc(C(=O)N/N=C/c2ccc(N3CCN(C(=O)OCc4ccccc4)CC3)cc2)cc1 | 121 nM | 1900 nM | 1450 nM | 9640 nM |  |
| NS(=O)(=O)c1ccc(C(=O)N/N=C/c2ccc(N3CCN(c4ccccn4)CC3)cc2)cc1 | 126 nM | 152 nM | 4560 nM | > 10000 nM |  |
| NS(=O)(=O)c1ccc(N/N=C/c2ccc(N3CCN(c4ccccn4)CC3)cc2)cc1 | 135 nM | 235 nM | 4590 nM | > 10000 nM |  |
| NS(=O)(=O)c1ccc(C(=O)N/N=C/c2ccc(N3CCN(C(=O)c4ccccc4)CC3)cc2)cc1 | 94.7 nM | 1050 nM | 308 nM | 5500 nM |  |
| NS(=O)(=O)c1ccc(N/N=C/c2ccc(N3CCN(C(=O)c4ccccc4)CC3)cc2)cc1 | 127 nM | 2490 nM | 2790 nM | > 10000 nM |  |
| NS(=O)(=O)c1ccc(C(=O)N/N=C/c2ccc(N3CCN(C(=O)c4ccco4)CC3)cc2)cc1 | 78.8 nM | 30.4 nM | 686 nM | 9490 nM |  |
| NS(=O)(=O)c1ccc(C(=O)N/N=C/c2ccc(N3CCN(Cc4ccccc4)CC3)cc2)cc1 | 41.5 nM | 163 nM | 414 nM | 7100 nM |  |
| NS(=O)(=O)c1ccc(N/N=C/c2ccc(N3CCN(c4ccc(C(F)(F)F)cc4)CC3)cc2)cc1 | 118 nM | 1930 nM | 7520 nM | 9470 nM |  |
| NS(=O)(=O)c1ccc(N/N=C/c2ccc(N3CCN(c4ncccn4)CC3)cc2)cc1 | 607 nM | 2230 nM | 8400 nM | > 10000 nM |  |
| NS(=O)(=O)c1ccc(N/N=C/c2ccc(N3CCN(C(=O)c4ccco4)CC3)cc2)cc1 | 6.2 nM | 1790 nM | 30.8 nM | 322 nM | Activity [1]: 50%; Activity [2]: 33%; Activity [4]: 83%; Activity [5]: 50%; Activity [6]: 83%; Activity [7]: 67%; Activity [10]: 50%; Activity [11]: 50%; Activity [12]: 50%; Activity [13]: 50%; Activity [14]: 50%; Activity [16]: 33% |
| NS(=O)(=O)c1ccc(C(=O)N/N=C/c2ccc(N3CCN(c4ccc(C(F)(F)F)cc4)CC3)cc2)cc1 | 148 nM | 1850 nM | 556 nM | 8160 nM |  |
| NS(=O)(=O)c1ccc(N/N=C/c2ccc(N3CCN(c4ccc(F)cc4)CC3)cc2)cc1 | 49.6 nM | 1270 nM | 559 nM | 2380 nM |  |

— ChEMBL document CHEMBL4270557, “Discovery of potent anti-convulsant carbonic anhydrase inhibitors: Design, synthesis, in vitro and in vivo appraisal” (Eur J Med Chem, 2018)
